# T1: E1 (Triticum aestivum, UniProt P20973)
# T1 construct: expressed in transfected cells; host or cells: E. coli
# T1 sequence (P20973 1-1051): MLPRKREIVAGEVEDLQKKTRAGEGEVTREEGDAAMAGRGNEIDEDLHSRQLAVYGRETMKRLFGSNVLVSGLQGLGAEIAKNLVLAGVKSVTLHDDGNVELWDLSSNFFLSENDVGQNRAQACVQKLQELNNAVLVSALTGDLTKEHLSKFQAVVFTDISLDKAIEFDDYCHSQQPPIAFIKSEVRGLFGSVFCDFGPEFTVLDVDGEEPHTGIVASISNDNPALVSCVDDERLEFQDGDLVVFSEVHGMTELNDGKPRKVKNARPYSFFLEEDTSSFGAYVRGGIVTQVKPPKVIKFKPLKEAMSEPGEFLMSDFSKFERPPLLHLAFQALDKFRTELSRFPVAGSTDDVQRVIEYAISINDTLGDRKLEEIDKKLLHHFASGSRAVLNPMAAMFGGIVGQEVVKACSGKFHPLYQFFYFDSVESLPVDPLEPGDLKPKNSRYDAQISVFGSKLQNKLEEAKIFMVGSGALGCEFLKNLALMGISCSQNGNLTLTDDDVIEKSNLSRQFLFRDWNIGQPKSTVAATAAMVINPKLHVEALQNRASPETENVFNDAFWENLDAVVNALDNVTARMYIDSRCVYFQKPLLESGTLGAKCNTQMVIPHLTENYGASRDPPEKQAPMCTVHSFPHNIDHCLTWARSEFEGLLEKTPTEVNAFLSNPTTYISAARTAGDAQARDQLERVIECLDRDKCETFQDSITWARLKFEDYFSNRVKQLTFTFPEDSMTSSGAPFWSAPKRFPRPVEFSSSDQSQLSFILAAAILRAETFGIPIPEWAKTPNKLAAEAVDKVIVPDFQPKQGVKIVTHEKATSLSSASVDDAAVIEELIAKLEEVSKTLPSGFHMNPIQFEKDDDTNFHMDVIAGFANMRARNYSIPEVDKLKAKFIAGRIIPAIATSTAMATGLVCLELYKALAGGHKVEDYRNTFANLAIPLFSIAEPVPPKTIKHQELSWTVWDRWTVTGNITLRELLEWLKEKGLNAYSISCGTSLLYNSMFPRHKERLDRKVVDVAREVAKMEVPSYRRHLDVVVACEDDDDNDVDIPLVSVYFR
# T2: Siah2 (Homo sapiens, UniProt O43255)
# T2 construct: expressed in transfected cells; host or cells: E. coli W3110
# T2 sequence (O43255 1-324): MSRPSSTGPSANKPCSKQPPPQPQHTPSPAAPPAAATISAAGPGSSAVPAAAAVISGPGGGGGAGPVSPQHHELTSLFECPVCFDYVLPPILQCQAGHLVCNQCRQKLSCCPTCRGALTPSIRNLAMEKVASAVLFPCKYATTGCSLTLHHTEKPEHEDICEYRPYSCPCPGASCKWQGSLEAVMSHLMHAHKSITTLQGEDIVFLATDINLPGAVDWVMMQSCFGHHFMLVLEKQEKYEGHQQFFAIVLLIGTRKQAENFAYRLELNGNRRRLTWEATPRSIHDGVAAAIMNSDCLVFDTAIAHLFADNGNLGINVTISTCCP
# What was measured:
# [1] = target: T1, E1; assay: Selection experiments in solution growth media (96-well, TRIM with or without Pyr-41), Hrs dsUIM ubiquitination; type: cell-based; details: 100 μM Pyr-41, with or without TRIM, n=9; FIG. 3D
# Protocol: Selection experiments in solution growth media: Overnight cultures in LB medium (supplemented with 30 μg/ml kanamycin and 25 μg/ml streptomycin) were harvested and re-suspended in Davis minimal medium. Diluted cells (OD600, 0.2) were grown at 30° C. in 96-well plates containing 0.2 ml Davis medium supplemented with 0, 1, 5, 7, 10 and 12 μg/ml TRIM and with or without 100 μM Pyr-41. Growth rates were monitored by measuring the optical density (OD595) using a microplate spectrophotometer. Doubling time was calculated for early logarithmic growth (OD595 between 0.02 and 0.2). All experiments were performed at least 9 times (n=9).
# The selection system stabilizes the dynamic and weak UBD:Ub non-covalent interactions by forming a covalent bond between Ub and Ub-receptor (i.e. ubiquitination) in the bacteria. The present inventors assessed the ability of the system to sense low affinity UBD by tethering the double-sided UIM (dsUIM) of Hrs as substrate^27,28 (FIG. 3A). The structures of Hrs:STAM (also known as ESCRT-0 complex) and particularly its dsUIM:Ub complex, were determined and facilitated detailed molecular assessment^29,30. The E3-independent self-ubiquitination of most Ub-receptors and the promiscuous function of Ubc4/5 subfamily members aided in the analysis. […] Similarly, I44-patch mutant abolished bacterial growth.
# [2] = target: T2, Siah2; assay: Ubiquitination-dependent E. coli growth assay, bacteria addicted to Siah2 self-ubiquitination; type: cell-based; details: only under the addictive conditions (selective media, TRIM); FIG. 2B right
# Protocol: Ubiquitination-dependent E. coli growth assay: E. coliW3110 (from Ezra Yagil laboratory at TAU) were co-transformed with the pND-Ub and the pCD-Sub plasmids and plated on LB agar supplemented with 34 μg/ml kanamycin and 25 μg/ml streptomycin. 5 ml of liquid LB medium supplemented with the same antibiotic concentrations were inoculated with a single colony and left to grow overnight at 37° C. The culture was harvested and washed twice with 5 ml of minimal Davis medium. The optical density (OD600.) was measured and adjusted to 0.2. Two and a half microliters of the diluted cultures from each sample were spotted on agar Davis plates containing 0, 0.5, 5, 10, 20 or 50 μg/ml of TRIM. The plates were incubated for 2-3 days at 30° C. and photographed with a UV camera in identical conditions. Each spotting assay was repeated at least 6 times.
# Most E3-ligases undergo self-ubiquitination^20. The developed selection system thus provides a straightforward tool for their identification and characterization as self-ubiquitination is predicted to confer antibiotic resistance. Yeast Rsp5 and human Siah2, representatives of the HECT and the RING ligases, respectively, were fused to cDHFR. Growth phenotypes were observed under non-permissive conditions, only when all the required ubiquitination components were co-expressed (FIGS. 2A-B). […]
# [3] = test system: Ub; assay: Surface plasmon resonance, immobilized Sc_ENTH and free mono-Ub; type: binding; details: mutant complexes; Ub concentrations too low for accurate Kd, high standard errors
# Protocol: Surface plasmon resonance: Purified His6-MBP-ENTH or mutants were immobilized on an Ni^+2 chip at a density of ˜800U. Untagged Ub (analyte) was injected at a flow rate of […] in 150 mM NaCl, 10 mM HEPES pH 7.0 and 0.010% poly-sorbate 20 at 24° C.; 500 mM imidazole was used for surface regeneration. To avoid immobilization of aggregated analyte the purified Ub was chromatographed by gel filtration and briefly sonicated immediately before SPR experiments. Data were processed with BioEvaluation and fitting carried out as a single-site-binding model with OriginLab. Standard errors derived from at least three samples.
# Finally, to biophysically corroborate the data and to quantify the affinity of the ENTH:Ub complex, Surface Plasmon Resonance (SPR) measurements were performed with immobilized Sc_ENTH and free mono-Ub (FIG. 5I). […] Together, the correlation between the SPR measurements, the genetic and biochemical data provides a rough estimation for the sensitivity of the selection system in monitoring Ub binding.
# [4] = target: Ub (Homo sapiens, UniProt P0CG47); details: reference 26; read-out: affinity of VHS:Ub complex; cited from earlier work
molecule,measurement,setting,value
CCOC(=O)c1ccc(N2NC(=O)/C(=C/c3ccc([N+](=O)[O-])o3)C2=O)cc1 [PYR41],effect on bacterial growth (relative growth rates at log phase),[1],attenuates bacterial growth only in the non-permissive conditions
CC1=CC(=O)c2ccccc2C1=O [menadione],growth phenotype in the presence of menadione,[2],growth arrest phenotype
"Ub R42E, R72E: R42E, R72E double mutant of ubiquitin","estimated affinity, fold lower than that of the wild-type",[3],2.6 fold
"Vps27: VHS domain of Vps27 in VHS:Ub complex (protein, left off: small tags and cut ends, VHS domain of Vps27 in VHS:Ub complex) IHSVDLSDEEKDSIYMFASLVEKMKSRPLNEILEDSKLQNLAQRVFASKARLNYALNDKAQKYNTLIEMNGKISEIMNIYDRLLEQQLQSINLSQQMEKKITGYTTVDISQWHRKEHFEAFQSVAQ",Kd,[4],1500 µM

# Source: patent publication US10982252B2, “Bacterial systems for analyzing ubiquitylated polypeptides” (Technology Innovation Momentum Fund (Israel) Limited …, priority 2016, dated 2021)
